Reference: patent US20220249540A1, “INHALABLE COMPOSITION COMPROMISING CYCLODEXTRIN FOR USE IN THE TREATMENT OF NASAL INFLAMMATIONS” (AQUILON PHARMACEUTICALS SA, priority 2019, published 2022)

How the values were obtained:
[1] = system: goblet cells in nasal mucosa tissue; test: goblet cells in nasal mucosa tissue of Ovalbumin-sensitized mice (PAS staining); assay type: in vivo, BALB/c mice; conditions: 50 mM in PBS by aerosolization 360 min before each OVA inhalation, Day 22 to 98; control group 50%
Protocol: Eight male and female BALB/c mice (6-8 weeks of age at the beginning of the protocol) were sensitized with Ovalbulmin (OVA) on D1 and D11 by intraperitoneal (i.p.) injection (10 μg grade V OVA diluted in 200 μl PBS), followed by OVA aerosols (10% grade Ill OVA dissolved in PBS buffer −50 ml were aerosolized with ultrasonic nebulizer during 30 minutes in a 30×20×15 cm Plexiglas exposure box where the animals were authorized to breathe and move normally). Aerosol administration was performed 360 min after i.n. treatments with Placebo or hydroxypropyl-gamma-cyclodextrin (HP-gamma-CD) during even weeks from days 22 to 98 (5 days/even week).
Mice were treated from Day 22 to Day 98 (5 days per week even week) with PBS (8 mice in control group) or with hydroxypropyl-gamma-cyclodextrin 50 mM diluted in PBS (8 mice in treated group) by aeorosolization (50 ml were aerosolized during 30 minutes in a Plexiglas exposure box where the animals were authorized to breathe and move normally) 360 min before each OVA inhalation.
On Day 99, the animals were sacrificed. […]
Numbers of goblet cells were counted using digitalized images of histological slides. Three hundred epithelial cells were counted at random and the percentage of positive cells for PAS staining (Goblet cells) was established relative to cells negative for PAS staining.

Wistar rats = test: two-week Dose-Range-Finding (DRF) Inhalation Study, histopathology of the nasal cavities; assay type: in vivo; conditions: for Normal (number of animals with normal nasal cavity histopathology): 3 examined
Protocol: Hydroxypropylbetacyclodextrin (HPBCD) was administered during two-weeks in a Dose-Range-Finding (DRF) Inhalation Study to Wistar rats in three different delivered doses: • low of 20 mg/kg/day and a target atmosphere concentration of 0.3 mg/L, • medium of 60 mg/kg/day and a target atmosphere concentration of 0.9 mg/L, and • […] to each three male and three non-pregnant female rats.
A control group which received control vehicle in the form of citrate buffer was provided with three male and three non-pregnant female rats. After terminal euthanasia, the nasal cavity was removed. Nasal cavities were embedded in paraffin wax, sections were cut at 4-6 μm by microtome and transferred to slides. Tissue sections were stained with haematoxylin-eosin/phloxine and examined by light microscope. Full histopathology of the nasal cavities, as well as the other organs of the respiratory tract, was performed in each group and is shown in FIG. 1. 4 levels of the nasal cavities were examined, among which 1 level included the nasopharyngeal duct and Nasal Associated Lymphoid Tissue (NALT).
Nasal cavities analyzed by histopathology were normal at all exposure levels of HPBCD.

Row | Normal (number of animals with normal nasal cavity histopathology) (Wistar rats; Female, High dosage (180 mg/kg/day)) | Normal (number of animals with normal nasal cavity histopathology) (Wistar rats; Female, Low dosage (20 mg/kg/day)) | Normal (number of animals with normal nasal cavity histopathology) (Wistar rats; Female, Mid dosage (60 mg/kg/day)) | Normal (number of animals with normal nasal cavity histopathology) (Wistar rats; Male, High dosage (180 mg/kg/day)) | Normal (number of animals with normal nasal cavity histopathology) (Wistar rats; Male, Low dosage (20 mg/kg/day)) | Normal (number of animals with normal nasal cavity histopathology) (Wistar rats; Male, Mid dosage (60 mg/kg/day)) | Nasal cavities analyzed by histopathology (Wistar rats; all exposure levels (20, 60, 180 mg/kg/day), nose-only inhalation, 90 min/day, 14 days) | Compound | % of goblet cells in nasal mucosa tissue [1]
1 | – | – | – | – | – | – | – | 2-hydroxypropyl-γ-cyclodextrin [Hydroxypropyl-gamma-cyclodextrin] | 20%
2 | 3 | 3 | 3 | 3 | 3 | 3 | normal | CC(O)COC[C@H]1O[C@@H]2O[C@H]3[C@H](O)[C@@H](O)[C@@H](O[C@H]4[C@H](O)[C@@H](O)[C@@H](O[C@H]5[C@H](O)[C@@H](O)[C@@H](O[C@H]6[C@H](O)[C@@H](O)[C@@H](O[C@H]7[C@H](O)[C@@H](O)[C@@H](O[C@H]8[C@H](O)[C@@H](O)[C@@H](O[C@H]1[C@H](O)[C@H]2O)O[C@@H]8COCC(C)O)O[C@@H]7COCC(C)O)O[C@@H]6COCC(C)O)O[C@@H]5COCC(C)O)O[C@@H]4COCC(C)O)O[C@@H]3COCC(C)O (stereo partly drawn) [HPBCD, 2-hydroxypropyl-beta-cyclodextrin] | –
